Experimental data: patent US20240051952A1, “HMOX1 INDUCERS” (Mitobridge Inc., priority 2019, published 2024)
Entries after “also recorded” stand apart in the source; their conditions may differ.

Columns and labels:
HbSS Townes sickle mice = assay: Heme-induced vaso-occlusion (stasis) in HbSS Townes sickle mice; type: in vivo, mouse; conditions: 1 h after heme infusion
From the text: Townes-SS mice were gavaged once daily with Vehicle or the compound of Example 17 for 8 days. After the last gavage dorsal skin-fold chambers were implanted on the mice and 20-22 flowing venules were selected and mapped in the subcutaneous skin using intravital microscopy. Mice were then infused via the tail vein with Panhematin (3.2 μmols heme/kg body weight). One hour after infusion each venule was re-examined for microvascular stasis (no flow) and data are expressed as % stasis. Stasis values are means+SD. One-Way ANOVA with Dunnett's Multiple comparison to Vehicle ****P<0.0001
Dosing Scheme of HMOX Inducers to HbSS Townes Sickle Mice
HbSS Townes sickle mice were oral gavaged once daily with Vehicle or the compound of Example 17 listed below for 8 days. To minimize experimental inconsistency, fresh formulation was prepared every day and vortexed prior to drawing test article into syringe for each dosing, and dosing was performed by the same individual throughout the day. The last-day dose was administered by oral gavage 4 hours prior to hemin infusion described below. • 1. Vehicle (0.5% w/v Tween 80 in 0.45% w/v methyl cellulose) • 2. the compound of Example 17 (10 mg/kg PO dosing) • 3. the compound of Example 17 (25 mg/kg PO dosing) • 4. the compound of Example 17 (50 mg/kg PO dosing)
Measurement of Vaso-Occlusion (Stasis)
Male and female sickle mice, approximately 12 weeks of age, were weighed before surgery. Animals were anesthetized with a mixture of ketamine (106 mg/kg) and xylazine (7.2 mg/kg) and dorsal skin-fold chambers (DSFCs) were surgically implanted. On the same day anesthetized mice were placed on a special intravital microscopy stage, and 20-22 flowing subcutaneous venules in the DSFC window were selected and mapped. After venule selection and mapping, hemin chloride (2.677 mM; Frontier Scientific), dissolved in sterile saline containing sodium carbonate (11.36 mM; Sigma-Aldrich) and D-sorbitol (9.59 mM; Sigma-Aldrich), was filtered (0.22 μm), diluted 1:10 in sterile saline (267.7 μM hemin, final) and infused into the tail veins of mice (0.012 ml/g, 3.2 μmols heme/kg body weight). All of the selected venules were re-examined at 1 h after hemin infusion, and the number of static (no flow) venules was counted and expressed as percent stasis. Four hours after hemin infusion, mice were euthanized in a CO2 atmosphere and the liver, spleen and kidneys were removed, flash frozen, and stored at −85° C.

[1] = test system: Primary human pulmonary artery endothelial cells (HPAEC); assay: Glutathione (GSH) levels in primary human endothelial cells under hemin stress; type: cell-based
Experimental: Example 149. Glutathione (GSH) Levels in Primary Human Endothelial Cells
Primary human pulmonary artery endothelial cells (HPAEC) (Lonza #CC-2530) cultured in endothelial cell growth medium-2 (EGM2 media, Lonza #CC-3162) were seeded in white 96-well plate (Corning® #3610) at 12.5 k cells per well and placed at 37° C. in 5% CO2. 18-24 hr post seeding, cells were treated with the compound of Example 17 via media change. 24 hr post treatment with the compound, cells were treated using a freshly prepared hemin stock (Sigma-Aldrich #51280 in 0.1N NaOH) alone or with the compound of Example 17. […] Media was aspirated off and GSH-Glo™ Glutathione Assay (Promega #V6911) was run following the manufacturer's protocol. White bottom plate seal (PerkinElmer #6005199) was used during read. Analysis was done using Softmax Pro.

VCAM-1 = VCAM-1 gene expression in TNFα-stimulated primary human endothelial cells; type: cell-based; conditions: HPAEC
From the text: Example 150. Gene Expression in Primary Human Endothelial Cells
Inflammatory conditions in endothelial cells increase expression of adhesion molecules, such as VCAM-1, ICAM-1 and E-selectin through NF-kB signaling. HMOX1 −/− endothelial cells show increased expression of VCAM-1 in response to TNF stimulation, as compared to HMOX +/+endothelial cells. See Seldon et al., J Immunol Dec. 1, 2007, 179 (11) 7840-7851.
Primary human pulmonary artery endothelial cells (HPAEC) (Lonza #CC-2530) were seeded in 12-well plates (TrueLine #TR5001) at 200 k cells per well and placed at 37° C. in 5% CO2. 18-24 hr post seeding, cells were treated with the compound of Example 17 via media change. 24 hr post treatment with the compound, cells were treated with 10 ng/mL TNFα (Invitrogen #PHC3015 in H2O) alone or with the compound of Example 17. […] 20ng cDNA was mixed with water, iQ™ SYBR® Green Supermix (BioRad #170-8886), and 300 nM primer (IDT #NM_001078) for a total 10ul reaction and loaded into 384-well white qPCR plates and subsequently analyzed using BioRad CFX384. […] To calculate fold change, the ΔCt on a per sample basis was calculated as Ct (Gene of interest)—Ct (Average of reference genes). The ΔΔCt was then calculated as ΔCt (experimental sample)—Average ΔCt (control group). […]

Cn1c(Nc2nc3ccccc3o2)nc2cc(C(=O)NCCOCCO)ccc21 [Example 17, 2-(benzo[d]oxazol-2-ylamino)-N-(2-(2-hydroxyethoxy)ethyl)-1-methyl-1H-benzo[d]imidazole-5-carboxamide]
stasis (HbSS Townes sickle mice; 10 mg/kg PO once daily 8 days): ~17%
stasis (HbSS Townes sickle mice; 25 mg/kg PO once daily 8 days): ~12%
stasis (HbSS Townes sickle mice; 50 mg/kg PO once daily 8 days): ~5%
microvascular stasis vs Vehicle (HbSS Townes sickle mice; 10, 25, 50 mg/kg PO once daily 8 days): significantly reduced; also recorded: dose responsively inhibit microvascular stasis
GSH levels / protection from hemin mediated oxidative stress ([1]; 24 hr pre-incubation, 30 min hemin stress): protects these cells from hemin mediated oxidative stress
toxicity, visual inspection of cells ([1]; after 30 min of hemin stress): no toxicity being noted
TNF-α mediated endothelial cell activation (VCAM-1 expression) (VCAM-1; 24 hr pre-treatment, 10 ng/mL TNFα 4 hours): reduced this TNF-α mediated endothelial cell activation
toxicity, visual inspection of cells (VCAM-1; after 4 hours of TNFα treatment): no toxicity being noted
